Experimental data published in the supplement of paper PMC4862054.
Values joined by “and” are separate entries in the source; they are usually repeats but may differ in a detail not shown here. Identical values can stand only once.

Assays:
Details in all cases: incubation time: 72 h
CAL-148 [1] = test: normalised viability (% of control), CellTiter-Blue; higher = more viable cells (about 100 = DMSO control)
Procedure: (§1)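 DSRT, CellTiter-Blue viability, 72 h incubation. Signal is normalised to DMSO and benzethonium chloride controls. Value is the normalised response at dose 7.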

CAL-51 [2] = test: as above
Procedure: as §1

CAL-85-1 [3] = test: as above
Procedure: as §1

DU-4475 = test: as above
Procedure: as §1

HDQ-P1 [4] = test: as above
Procedure: as §1

MDA-MB-453 [5] = test: as above
Procedure: as §1

BT-474 = test: normalised response (% of control), CellTox Green; higher = less cell death (100 = DMSO, 0 = benzethonium chloride kill control)
Procedure, shortened: (§2)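 Each value is the plate-normalised signal at one concentration of the series. Breast cancer cell lines (20 µl suspension) were incubated 72 h in 384-well plates with compound at 5 concentrations in 10-fold steps over a compound-specific 10,000-fold range. CellTox Green and then CellTiter-Glo were read, and each plate was scaled to 0.1 % DMSO (100) and a positive kill control (0).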

BT-549 = test: as above
Procedure, shortened: as §2

CAL-148 [6] = test: as above
Procedure, shortened: as §2

CAL-51 [7] = test: as above
Procedure, shortened: as §2

CAL-85-1 [8] = test: as above
Procedure, shortened: as §2

HCC1143 = test: as above
Procedure, shortened: as §2

HCC1599 = test: as above
Procedure, shortened: as §2

HCC1937 = test: as above
Procedure, shortened: as §2

HDQ-P1 [9] = test: as above
Procedure, shortened: as §2

Hs578T = test: as above
Procedure, shortened: as §2

MDA-MB-231 = test: as above
Procedure, shortened: as §2

MDA-MB-453 [10] = test: as above
Procedure, shortened: as §2

MFM-223 = test: as above
Procedure, shortened: as §2

MDA-MB-436 = test: as above
Procedure, shortened: as §2

CO[C@H](C(=O)[C@@H](O)[C@@H](C)O)[C@@H]1Cc2cc3cc(O[C@H]4C[C@@H](O[C@@H]5C[C@@H](O)[C@H](O)[C@@H](C)O5)[C@H](O)[C@@H](C)O4)c(C)c(O)c3c(O)c2C(=O)[C@H]1O[C@H]1C[C@@H](O[C@@H]2C[C@@H](O)[C@@H](O[C@@H]3C[C@](C)(O)[C@H](O)[C@@H](C)O3)[C@@H](C)O2)[C@H](O)[C@@H](C)O1 [Plicamycin] (1000 nM)
normalised viability (CAL-148 [1]): 2.42% and 2.71% | normalised viability (CAL-51 [2]): 4.92% and 5.48% | normalised viability (CAL-85-1 [3]): 6.52% and 5.6% | normalised viability (DU-4475): 0.92% and -0.07% | normalised viability (HDQ-P1 [4]): 32.4% and 21.1% | normalised viability (MDA-MB-453 [5]): 8.78% and 7.08% | normalised response (BT-474): 100% | normalised response (BT-549): 107% | normalised response (CAL-148 [6]): 109% | normalised response (CAL-51 [7]): 94.9% | normalised response (CAL-85-1 [8]): 99.3% | normalised response (HCC1143): 81.6% | normalised response (HCC1599): 94.9% | normalised response (HCC1937): 104% | normalised response (HDQ-P1 [9]): 97.8% | normalised response (Hs578T): 106% | normalised response (MDA-MB-231): 106% | normalised response (MDA-MB-453 [10]): 104% | normalised response (MFM-223): 81.3%

CC/C(=C(\c1ccccc1)c1ccc(OCCN(C)C)cc1)c1ccccc1 [Tamoxifen] (1000 nM)
normalised viability (CAL-148 [1]): 124% | normalised viability (CAL-51 [2]): 78.4% | normalised viability (CAL-85-1 [3]): 101% | normalised viability (DU-4475): 112% | normalised viability (HDQ-P1 [4]): 98.7% | normalised viability (MDA-MB-453 [5]): 105% | normalised response (BT-474): 101% | normalised response (BT-549): 94% | normalised response (CAL-148 [6]): 106% | normalised response (CAL-51 [7]): 99.5% | normalised response (CAL-85-1 [8]): 101% | normalised response (HCC1143): 122% | normalised response (HCC1599): 103% | normalised response (Hs578T): 89.4% | normalised response (MDA-MB-231): 103% | normalised response (MDA-MB-436): 108% | normalised response (MDA-MB-453 [10]): 110% | normalised response (MFM-223): 74.9%

COc1cc2c(N3CCN(C(=O)Nc4ccc(OC(C)C)cc4)CC3)ncnc2cc1OCCCN1CCCCC1 [Tandutinib] (100 nM)
normalised viability (CAL-148 [1]): 101% | normalised viability (CAL-51 [2]): 107% | normalised viability (CAL-85-1 [3]): 100% | normalised viability (DU-4475): 117% | normalised viability (HDQ-P1 [4]): 112% | normalised viability (MDA-MB-453 [5]): 97.6% | normalised response (BT-474): 96.3% | normalised response (BT-549): 129% | normalised response (CAL-148 [6]): 100% | normalised response (CAL-51 [7]): 96.4% | normalised response (CAL-85-1 [8]): 110% | normalised response (HCC1143): 93.2% | normalised response (HCC1599): 91.2% | normalised response (HCC1937): 112% | normalised response (Hs578T): 91.6% | normalised response (MDA-MB-231): 105% | normalised response (MDA-MB-436): 94.2% | normalised response (MDA-MB-453 [10]): 106% | normalised response (MFM-223): 100%

C[C@@H](C(=O)O)c1ccc(-c2ccccc2)c(F)c1 [Tarenflurbil] (1000 nM)
normalised viability (CAL-148 [1]): 92.5% | normalised viability (CAL-51 [2]): 109% | normalised viability (CAL-85-1 [3]): 90% | normalised viability (DU-4475): 108% | normalised viability (HDQ-P1 [4]): 83.2% | normalised viability (MDA-MB-453 [5]): 87.7% | normalised response (BT-474): 97.1% | normalised response (BT-549): 108% | normalised response (CAL-51 [7]): 114% | normalised response (CAL-85-1 [8]): 87.9% | normalised response (HCC1143): 105% | normalised response (HCC1599): 96.3% | normalised response (HCC1937): 115% | normalised response (HDQ-P1 [9]): 65.7% | normalised response (MDA-MB-436): 60.6% | normalised response (MDA-MB-453 [10]): 102% | normalised response (MFM-223): 87.5%
